According to PubChem BioAssay AID743259 (The Scripps Research Institute Molecular Screening Center, 2014):
Active and inactive are the calls of the source. The rule behind the calls is not given here.

Molecular target: Disintegrin and metalloproteinase domain-containing protein 10 (Homo sapiens) (UniProt O14672)
Assay: inhibition of ADAM10 peptide cleavage – biochemical, FRET peptide substrate, recombinant human ADAM10, selectivity assay for ADAM17 exosite inhibitor project, dose response (AID 743259)

Disintegrin and metalloproteinase domain-containing protein 10 (Homo sapiens), sequence (O14672 214-748 limits assumed): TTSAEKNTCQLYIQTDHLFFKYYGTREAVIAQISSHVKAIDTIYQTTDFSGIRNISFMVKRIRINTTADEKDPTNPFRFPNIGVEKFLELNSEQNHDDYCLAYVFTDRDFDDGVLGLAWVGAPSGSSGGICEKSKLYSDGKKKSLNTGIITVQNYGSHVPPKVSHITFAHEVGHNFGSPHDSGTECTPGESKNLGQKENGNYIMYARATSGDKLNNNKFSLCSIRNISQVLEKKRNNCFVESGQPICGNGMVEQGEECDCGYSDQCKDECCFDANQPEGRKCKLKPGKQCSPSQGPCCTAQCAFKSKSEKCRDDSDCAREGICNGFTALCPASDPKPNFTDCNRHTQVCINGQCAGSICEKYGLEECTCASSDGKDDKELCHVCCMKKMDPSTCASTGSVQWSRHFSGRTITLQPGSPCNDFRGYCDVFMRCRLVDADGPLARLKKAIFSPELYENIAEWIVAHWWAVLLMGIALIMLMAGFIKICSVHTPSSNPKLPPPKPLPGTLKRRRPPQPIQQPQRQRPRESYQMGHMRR

IC50	SMILES
inactive	CCOc1ccc(NC(=O)CC2SC(=O)N(c3ccccc3)C2=O)cc1 (centres undefined)
inactive	CC(C)(C)c1ccc(OCc2nc(-c3ccccn3)no2)c(Br)c1
> 69.5 µM (inactive)	Cc1cc(SCC(=O)c2ccc(O)c(O)c2)n2nc(C)c(-c3ccccc3)c2n1
> 69.5 µM (inactive)	COC(=O)c1cccc(Cn2c(Cl)c(/C=N/Nc3ccccc3C)sc2=O)c1
> 69.5 µM (inactive)	CC(=NNC(=O)CSc1nnc(-c2ccc(C(C)(C)C)cc2)n1-c1ccccc1)c1cccc2ccccc12
inactive	O=C(CC1SC(=O)N(c2ccccc2)C1=O)Nc1ccccc1 (centres undefined)
> 69.5 µM (inactive)	O=C(NCC1CCCO1)C(c1cccs1)N(Cc1ccccc1)C(=O)c1ccc(-c2ccccc2)[nH]1 (centres undefined)
> 69.5 µM (inactive)	COc1cccc(C2C(C#N)=C(N)Oc3c2oc(CO)cc3=O)c1 (centres undefined)
> 69.5 µM (inactive)	COCCN=c1scc(-c2cc(OC)c(OC)c(OC)c2)n1/N=C/c1c(C)[nH]c2ccccc12
> 69.5 µM (inactive)	COc1ccc(N(CC(O)Cn2c3ccccc3c3ccccc32)S(=O)(=O)c2ccccc2)cc1 (centres undefined)
> 69.5 µM (inactive)	Cc1ccccc1NC(C)C(=O)N/N=C/c1ccccc1OCc1cccc(Br)c1 (centres undefined)
inactive	C/C(=N\N=C(/N)SC1CC(=O)N(c2ccc(Br)cc2)C1=O)c1cccs1 (centres undefined)
> 69.5 µM (inactive)	O=C1OCCN1C(=O)[C@H]1[C@H](c2ccc([N+](=O)[O-])cc2)C(c2ccccc2)=NN1c1ccc(Br)cc1
> 69.5 µM (inactive)	COCCN=c1scc(-c2cc(OC)ccc2OC)n1/N=C/c1c[nH]c2ccccc12
9.05 µM	Oc1c(C(c2ccccn2)N2CCCCC2)cc(Cl)c2cccnc12 (centres undefined)
> 69.5 µM (inactive)	CC(=O)c1cccc(NC(=O)C(OC(=O)c2ccccc2NS(=O)(=O)c2cccs2)c2ccccc2)c1 (centres undefined)
9.96 µM	C/C(=N\N=C(/N)SC1CC(=O)N(c2ccccc2)C1=O)c1cccs1 (centres undefined)
> 69.5 µM (inactive)	C=C(C)CN1CCN(S(=O)(=O)c2ccc(C)c(N(C)S(=O)(=O)c3ccc(C)cc3)c2C)CC1
inactive	CCCOC(=O)c1ccc(Oc2cn[nH]c2-c2ccc(OCC)cc2O)cc1
